Results taken from PubChem BioAssay (NCI).
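Tested at 5 concentrations; 48 h exposure; 96-well plates; endpoints linearly interpolated, else capped at highest concentration. GI50 = concentration required for 50% inhibition of growth. TGI: total growth inhibition.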

How the values were obtained:
Test in all cases: growth of human tumour cells (NCI), 48 h
K-562 leukemia = tested on: K-562 leukemia
MDA-MB-231 breast = tested on: MDA-MB-231 breast
NCI-H23 lung = tested on: NCI-H23 lung
SF-295 CNS = tested on: SF-295 CNS
SK-MEL-5 melanoma = tested on: SK-MEL-5 melanoma
BT-549 breast = tested on: BT-549 breast
U251 CNS = tested on: U251 CNS
HCT-116 colon = tested on: HCT-116 colon
UO-31 renal = tested on: UO-31 renal
OVCAR-8 ovarian = tested on: OVCAR-8 ovarian
SNB-19 CNS = tested on: SNB-19 CNS
NCI-H522 lung = tested on: NCI-H522 lung
MCF7 breast = tested on: MCF7 breast
KM12 colon = tested on: KM12 colon
MDA-MB-435 = tested on: MDA-MB-435
OVCAR-5 ovarian = tested on: OVCAR-5 ovarian
NCI-H226 lung = tested on: NCI-H226 lung
HCC-2998 colon = tested on: HCC-2998 colon
HL-60(TB) leukemia = tested on: HL-60(TB) leukemia
SNB-75 CNS = tested on: SNB-75 CNS
PC-3 prostate = tested on: PC-3 prostate
OVCAR-3 ovarian = tested on: OVCAR-3 ovarian
HOP-62 NSCLC = tested on: HOP-62 NSCLC
NCI-H460 lung = tested on: NCI-H460 lung
SF-539 CNS = tested on: SF-539 CNS
A498 renal = tested on: A498 renal
NCI/ADR-RES ovarian = tested on: NCI/ADR-RES ovarian
OVCAR-4 ovarian = tested on: OVCAR-4 ovarian
SW-620 colon = tested on: SW-620 colon
LOX IMVI melanoma = tested on: LOX IMVI melanoma
TK-10 renal = tested on: TK-10 renal
SK-MEL-2 melanoma = tested on: SK-MEL-2 melanoma
CAKI-1 renal = tested on: CAKI-1 renal
786-0 renal = tested on: 786-0 renal
HOP-92 NSCLC = tested on: HOP-92 NSCLC
IGROV1 ovarian = tested on: IGROV1 ovarian
RXF 393 renal = tested on: RXF 393 renal
SF-268 CNS = tested on: SF-268 CNS
SK-OV-3 ovarian = tested on: SK-OV-3 ovarian
SN12C renal = tested on: SN12C renal
UACC-62 melanoma = tested on: UACC-62 melanoma
MOLT-4 leukemia = tested on: MOLT-4 leukemia
MALME-3M melanoma = tested on: MALME-3M melanoma
ACHN renal = tested on: ACHN renal
RPMI-8226 leukemia = tested on: RPMI-8226 leukemia
HCT-15 colon = tested on: HCT-15 colon
SK-MEL-28 melanoma = tested on: SK-MEL-28 melanoma
COLO 205 colon = tested on: COLO 205 colon
T-47D breast = tested on: T-47D breast
DU-145 prostate = tested on: DU-145 prostate
HT29 colon = tested on: HT29 colon
M14 melanoma = tested on: M14 melanoma
UACC-257 melanoma = tested on: UACC-257 melanoma
A549 NSCLC = tested on: A549 NSCLC
HS 578T breast = tested on: HS 578T breast
SR leukemia = tested on: SR leukemia

## COc1cc(-c2nn(-c3cccc(NC(=O)Nc4cccc(C(F)(F)F)c4)c3)cc2-c2ccncc2)ccc1Cl
K-562 leukemia
  GI50: 386 nM
  TGI: 12100 nM
MDA-MB-231 breast
  GI50: 813 nM
  TGI: 2230 nM
NCI-H23 lung
  GI50: 769 nM
  TGI: 3020 nM
SF-295 CNS
  GI50: 229 nM
  TGI: 926 nM
SK-MEL-5 melanoma
  GI50: 622 nM
  TGI: 1270 nM
BT-549 breast
  GI50: 1230 nM
  TGI: 4030 nM
U251 CNS
  GI50: 467 nM
  TGI: 1230 nM
HCT-116 colon
  GI50: 608 nM
  TGI: 6090 nM
UO-31 renal
  GI50: 747 nM
  TGI: 3040 nM
OVCAR-8 ovarian
  GI50: 739 nM
  TGI: 2700 nM
SNB-19 CNS
  GI50: 999 nM
  TGI: 6260 nM
NCI-H522 lung
  GI50: 451 nM
  TGI: 1870 nM
MCF7 breast
  GI50: 609 nM
  TGI: 4700 nM
KM12 colon
  GI50: 422 nM
  TGI: 2020 nM
MDA-MB-435
  GI50: 794 nM
  TGI: 1980 nM
OVCAR-5 ovarian
  GI50: 1520 nM
  TGI: 8410 nM
NCI-H226 lung
  GI50: 1210 nM
  TGI: 14800 nM
HCC-2998 colon
  GI50: 1380 nM
  TGI: 4710 nM
HL-60(TB) leukemia
  GI50: 756 nM
  TGI: 10100 nM
SNB-75 CNS
  GI50: 1130 nM
  TGI: 4100 nM
PC-3 prostate
  GI50: 244 nM
  TGI: 1550 nM
OVCAR-3 ovarian
  GI50: 343 nM
  TGI: 1590 nM
HOP-62 NSCLC
  GI50: 923 nM
  TGI: 2880 nM
NCI-H460 lung
  GI50: 478 nM
  TGI: 2280 nM
SF-539 CNS
  GI50: 958 nM
  TGI: 2560 nM
A498 renal
  GI50: 609 nM
  TGI: 3030 nM
NCI/ADR-RES ovarian
  GI50: 696 nM
  TGI: 3580 nM
OVCAR-4 ovarian
  GI50: 996 nM
  TGI: 13800 nM
SW-620 colon
  GI50: 767 nM
  TGI: 9430 nM
LOX IMVI melanoma
  GI50: 789 nM
  TGI: 1650 nM
TK-10 renal
  GI50: 1060 nM
  TGI: 9260 nM
SK-MEL-2 melanoma
  GI50: 935 nM
  TGI: 1940 nM
CAKI-1 renal
  GI50: 952 nM
  TGI: 3100 nM
786-0 renal
  GI50: 1120 nM
  TGI: 3170 nM
HOP-92 NSCLC
  GI50: 251 nM
  TGI: 921 nM
IGROV1 ovarian
  GI50: 920 nM
  TGI: 3240 nM
RXF 393 renal
  GI50: 798 nM
  TGI: 1950 nM
SF-268 CNS
  GI50: 1280 nM
  TGI: 5010 nM
SK-OV-3 ovarian
  GI50: 1700 nM
  TGI: 15400 nM
SN12C renal
  GI50: 817 nM
  TGI: 10500 nM
UACC-62 melanoma
  GI50: 627 nM
  TGI: 1480 nM
MOLT-4 leukemia
  GI50: 936 nM
  TGI: 3480 nM
MALME-3M melanoma
  GI50: 845 nM
  TGI: 2180 nM
ACHN renal
  GI50: 371 nM
  TGI: 13600 nM
RPMI-8226 leukemia
  GI50: 241 nM
  TGI: 1830 nM
HCT-15 colon
  GI50: 957 nM
  TGI: 10800 nM
SK-MEL-28 melanoma
  GI50: 1060 nM
  TGI: 3910 nM
COLO 205 colon
  GI50: 588 nM
  TGI: 1430 nM
T-47D breast
  GI50: 638 nM
  TGI: 11400 nM
DU-145 prostate
  GI50: 1360 nM
  TGI: 22800 nM
HT29 colon
  GI50: 775 nM
  TGI: 2090 nM
M14 melanoma
  GI50: 759 nM
  TGI: 2160 nM
UACC-257 melanoma
  GI50: 746 nM
  TGI: 2090 nM
A549 NSCLC
  GI50: 723 nM
  TGI: 14500 nM
HS 578T breast
  GI50: 1360 nM
  TGI: 16600 nM
SR leukemia
  GI50: 858 nM
  TGI: 2620 nM
